The values below come from patent publication US9173878B2, “Brain function improving agent” (Tohoku University, priority 2012, dated 2015).

Counter-ions that a name gives are not always drawn.

One assay has as its system Alzheimer's disease. Conditions: treating Alzheimer's disease; cited from earlier work.
For assay [1], the system named is mouse hippocampus CA1 region. The assay can be described thus: Long-term potentiation of synaptic transmission (LTP), fEPSP in hippocampus slice. It is filed as cell-based. Conditions: 100 pM in artificial cerebrospinal fluid. Here is the method:
(§1) The brain of a male mouse C57BL/6 (10-12 weeks old) was sagitally sectioned, then a coronal section brain slice (400 μm) including a hippocampus CA1 region was prepared. The hippocampus slice was recovered in an artificial cerebrospinal fluid (126 mM NaCl, 5 mM KCl, 26 mM NaHCO3, 1.3 mM MgSO4-7H2O, 1.26 mM KH2PO4, 2.4 mM CaCl2-2H2O, 10 mM glucose) saturated by a 95% O2/5% CO2 gas at 34° C. for 2 hours. The hippocampus slice was transferred to a measurement chamber, and ST101 (100 pM), SAK1 (100 pM), SAK3 (100 pM) were added to the artificial cerebrospinal fluid, and perfused. Then, the Schaffer branch to be input to the hippocampus CA1 region and the commissural fibers were stimulated by stimulus electrodes, and the postsynaptic potential (fEPSP; field excitatory postsynaptic potential) in the CA1 region induced thereby was measured. After measurement, just the hippocampus CA1 region was sliced from the slice segment, and frozen for preservation at −80° C. for measurement with immunoblotting.

In assay [2] the test system is CaMKII. The assay can be described thus: CaMKII self-phosphorylation (activation) in hippocampus CA1 region, immunoblot. It is filed as cell-based, mouse. The conditions noted are these: hippocampus CA1 region 60 minutes after LTP, 100 pM. As to the method: as §1, with “After measurement, just the hippocampus CA1 region was sliced from the slice segment, and frozen for preservation at −80° C. for measurement with immunoblotting.” left out
The above frozen mouse brain slice segment (hippocampus CA1 region) is used for homogenization on ice by adding 150 μL homogenizing buffer (50 mM Tris-HCl pH 7.5, 0.5% Triton X-100, 4 mM EGTA, 0.5 M NaCl, 10 mM EDTA, 1 mM Na3VO4, 30 mM sodium pyrophosphate, 50 mM NaF, 1 mM DTT, 100 nM calyculin A, 50 μg/mL leupeptin, 25 μg/mL pepstatin A, 50 μg/mL trypsin inhibitor) per sample. […] The protein concentration was measured by the Bradford method using a part of the supernatant. […]

The subject of assay [3] is CaMKII. The assay can be described thus: CaMKII self-phosphorylation (activation) in cultured mouse cerebral cortex cell, immunoblot. Conditions: 100 pM, 30 minutes of incubation. It is filed as cell-based. As to the method:
The above frozen mouse brain slice segment (hippocampus CA1 region) is used for homogenization on ice by adding 150 μL homogenizing buffer (50 mM Tris-HCl pH 7.5, 0.5% Triton X-100, 4 mM EGTA, 0.5 M NaCl, 10 mM EDTA, 1 mM Na3VO4, 30 mM sodium pyrophosphate, 50 mM NaF, 1 mM DTT, 100 nM calyculin A, 50 μg/mL leupeptin, 25 μg/mL pepstatin A, 50 μg/mL trypsin inhibitor) per sample. Then, centrifugation was performed using a refrigerated centrifuge (14,000×g, 10 minutes, 4° C.), after which 100 μL of supernatant was collected and 20 μL of 6× Laemmli buffer was added to the supernatant to be boiled at 100° C. for 3 minutes, to form an immunoblotting sample. The protein concentration was measured by the Bradford method using a part of the supernatant. Reagants containing the same amount of protein were added to 10% SDS-polyacrylamido electrophoresis gel (SDS-PAGE gel), and SDS-PAGE was performed at 80 mA per 1 sheet of gel for 180 minutes. After separation by electrophoresis, transcription to a PVDF membrane was performed at 70 V for 120 minutes. […] After washing with a TTBS solution, ECL detection system (GE healthcare) was used to induce luminescence of HRP that labels the second antibody, and the X-ray film (Fuji Medical X-ray Film, Fuji Film) was sensitized to detect the band. An NIH image analysis software was used for a quantification analysis of the immunoreaction product.
The dispersion cultivation of a mouse cerebral cortex cell was performed by a previously reported method (Fukunaga et al., J. Biol. Chem. 267, 22527-22533, 1992). […] The frozen cerebral cortex cells were subjected to quantification analysis of the activation state (self-phosphorylation reaction) of CaMKII by the immunoblotting method after homogenization, similarly to the method in Test Example 2.
In general terms: A western blot detects proteins with antibodies after separation by electrophoresis.

Assay [4] deals with non-transfected mouse neuroblastoma cell line Neuro2A. Briefly: Calcium imaging (Fura-2) in T-type calcium channel non-expressing Neuro2A cells. The conditions noted are these: Cav3.1 non-expressing cell, nicotin 1 μM. It is filed as cell-based. As to the method: The cells of mouse neuroblastoma cell line Neuro2A were purchased from the Human Science Research Resources Bank (#IFO50081, Osaka, Japan). […] Then, the Neuro2A cells were seeded to a glass bottom dish at a concentration of 1 to 2×10^6 cell/φ35-mm dish, and cultivated for 24 hours in a standard culture medium, and the cells were transfected using Lipofectamine 2000 (Invitrogen, Carsbad, Calif., USA) and using a plasmid vector containing a T-type calcium channel (Cav 3.1) genes (serum-free culture of Lipofectamine 2000: DNA=1 μl: 1 μg, 1.5 ml). The T-type calcium channel (Cav 3.1) gene, the plasmid vector pCMV-SPORT6, and the Lipofectamine 2000 were respectively purchased from OriGene Technologies, Inc., Thermo Fisher Scientific Ltd., and Invitrogen, and the transfection was performed according to the protocol attached to Lipofectamine 2000 other than the rate adjustment of the Lipofectamine 2000 and plasmid vector. The serum-free culture was replaced with a standard culture 6 hours after transfect, and calcium imaging (calcium concentration measurement) was performed after Cav 3.1 expression was confirmed after 48 hours of culture. T-type calcium channel expressing Neuor2A cells were dispersed in a glass bottom dish, and 2.5 μM of Fura-2-AM (Sigma, St Louis, Mo., USA) was added to the dish in perfusion (Krebs-Hepes buffer; KRH), then the dish was incubated at 37° C. for 30 minutes. A Fura-2-AM-free KRH was replaced with perfusion, and the Neuro2A cells were stimulized with SAK3 (100 pM) as the intracellular calcium was measured with a fluorescent microscope, then the cells were further stimulized with nicotin (1 μM), ATP (0.1 μM), DHPG (20 μM), as necessary.

On to `COc1cc2c(cc1OC)C(=O)C(CC1CCN(Cc3ccccc3)CC1)C2` (stereo not shown) [Donepezil hydrochloride], for which the “efficacy ratio of the clinical result” value with Alzheimer's disease is on record as “about 50%”.
Turning to `CCOC(=O)C1=C(SC)C2(CC1=O)C(=O)N=C1C=CC=CN12` (stereo not shown) [SAK1], in assay [1], the LTP potentiation effect result was “a strong potentiation effect was observed”. In addition, the “phosphorylated CaMKII / CaMKII activation” value with CaMKII [2] is “an increase of phosphorylated CaMKII and a potentiation of CaMKII activation were confirmed”.
`CCOC(=O)C1=C(N2CCCCC2)C2(CC1=O)C(=O)N=C1C=CC=CN12` (stereo not shown) [SAK8]: the “phosphorylated CaMKII / activation of CaMKII” value with CaMKII [3] is listed as “increased phosphorylated CaMKII”.
As for `CCOC(=O)C1=C(N2CCCCC2)C2(CC1=O)C(=O)N=C1C(C)=CC(C)=CN12` (stereo not shown) [SAK9], in the assay on CaMKII [3], the “phosphorylated CaMKII / activation of CaMKII” value is on record as “increased phosphorylated CaMKII”.
With `O=C1N=C2C=CC=CN2C12Cc1ccccc1C2` [ST101, reference compound], the LTP potentiation effect entry in assay [1] was “does not show a strong LTP potentiation effect”.
In the case of `CN1CCCC1c1cccnc1` (stereo not shown) [nicotin, reference compound], in assay [4], the “change in calcium concentration after adding nicotin” value was “an increase in the calcium concentration after adding nicotin was confirmed”.
